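48-hour exposure; five concentrations; linearly interpolated endpoints. At the GI50, growth is halved.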 The source made the active and inactive calls. Rule as the data show it: active = GI50 up to about 1.1 µM and inactive = higher.
Key:
Assay in all cases: NCI-60 cell line screen, 48 h
786-0 = system: 786-0
A498 = system: A498
CAKI-1 = system: CAKI-1
COLO 205 = system: COLO 205
EKVX = system: EKVX
KM12 = system: KM12
LOX IMVI = system: LOX IMVI
M14 = system: M14
MOLT-4 = system: MOLT-4
NCI-H23 = system: NCI-H23
NCI-H522 = system: NCI-H522
OVCAR-3 = system: OVCAR-3
SF-539 = system: SF-539
SK-MEL-5 = system: SK-MEL-5
SNB-75 = system: SNB-75
TK-10 = system: TK-10
XF498 = system: XF498
BT-549 = system: BT-549
HCC 2998 = system: HCC 2998
MDA-MB-435 = system: MDA-MB-435

Compound	GI50 (786-0)	GI50 (A498)	GI50 (CAKI-1)	GI50 (COLO 205)	GI50 (EKVX)	GI50 (KM12)	GI50 (LOX IMVI)	GI50 (M14)	GI50 (MOLT-4)	GI50 (NCI-H23)	GI50 (NCI-H522)	GI50 (OVCAR-3)	GI50 (SF-539)	GI50 (SK-MEL-5)	GI50 (SNB-75)	GI50 (TK-10)	GI50 (XF498)	GI50 (BT-549)	GI50 (HCC 2998)	GI50 (MDA-MB-435)
O=[N+]([O-])c1nccn1CC(O)c1ccccc1 (stereo not drawn)	> 100 µM (inactive)	> 100 µM (inactive)	> 100 µM (inactive)	> 100 µM (inactive)	> 100 µM (inactive)	> 100 µM (inactive)	> 100 µM (inactive)	> 100 µM (inactive)	> 100 µM (inactive)	> 100 µM (inactive)	> 100 µM (inactive)	> 100 µM (inactive)	> 100 µM (inactive)	> 100 µM (inactive)	> 100 µM (inactive)	> 100 µM (inactive)	> 100 µM (inactive)			
O=C(Nc1ccccc1)c1ccc(Cl)c([N+](=O)[O-])c1	4.85 µM (inactive)	21.8 µM (inactive)	6.05 µM (inactive)	28.2 µM (inactive)	28.4 µM (inactive)	3.09 µM (inactive)	4.46 µM (inactive)	10.2 µM (inactive)	3.85 µM (inactive)	23 µM (inactive)	6.79 µM (inactive)	19.1 µM (inactive)	21.4 µM (inactive)	5.82 µM (inactive)	13.8 µM (inactive)	29.3 µM (inactive)	18 µM (inactive)			
COc1cccc(C(NC2=NCCC=N2)c2cc3c(cc2O)OCO3)c1O (stereo not drawn)	12.4 µM (inactive)	27.7 µM (inactive)	49.1 µM (inactive)	40.1 µM (inactive)	> 100 µM (inactive)	32.8 µM (inactive)	19.5 µM (inactive)	27.4 µM (inactive)	23.6 µM (inactive)	32.1 µM (inactive)	15.8 µM (inactive)	22 µM (inactive)	25.8 µM (inactive)	38.8 µM (inactive)	23.3 µM (inactive)	76.9 µM (inactive)		16.7 µM (inactive)	19.9 µM (inactive)	29 µM (inactive)
CC(C)(C)c1cc(O)c2c(c1O)C(=O)CCC2	32.1 µM (inactive)	40.6 µM (inactive)	22.5 µM (inactive)	73.8 µM (inactive)	54.8 µM (inactive)		28.4 µM (inactive)	34.9 µM (inactive)	23.9 µM (inactive)	28.9 µM (inactive)		25.6 µM (inactive)	42.3 µM (inactive)	18.4 µM (inactive)	42.4 µM (inactive)	40.9 µM (inactive)	31.1 µM (inactive)		36.7 µM (inactive)	
CCOC(=O)c1c[nH]c2cc3c(cc2c1=O)CCS3	> 100 µM (inactive)	> 100 µM (inactive)	> 100 µM (inactive)	> 100 µM (inactive)	> 100 µM (inactive)	> 100 µM (inactive)	> 100 µM (inactive)	> 100 µM (inactive)	> 100 µM (inactive)	> 100 µM (inactive)	> 100 µM (inactive)	> 100 µM (inactive)	> 100 µM (inactive)	> 100 µM (inactive)	> 100 µM (inactive)	> 100 µM (inactive)		> 100 µM (inactive)	> 100 µM (inactive)	> 100 µM (inactive)
N=c1oc2ccccc2cc1C(=O)Nc1nccs1	2.37 µM (inactive)	45.7 µM (inactive)	13.4 µM (inactive)	14.6 µM (inactive)	25.1 µM (inactive)	34.3 µM (inactive)	2.33 µM (inactive)	19 µM (inactive)	4.8 µM (inactive)	35.8 µM (inactive)	0.647 µM (active)	9.31 µM (inactive)	5.75 µM (inactive)	31 µM (inactive)	35.6 µM (inactive)	7.85 µM (inactive)		39.5 µM (inactive)	35.2 µM (inactive)	25.8 µM (inactive)
CC(=O)N(CN1C(=O)CCC1C(=O)O)c1ccccc1 (stereo not drawn)	> 53.8 µM (inactive)	> 59.7 µM (inactive)	> 57.3 µM (inactive)	> 58.6 µM (inactive)	> 53.8 µM (inactive)	> 55.3 µM (inactive)	> 56.9 µM (inactive)	> 54.5 µM (inactive)	> 54.2 µM (inactive)	> 56.2 µM (inactive)	> 53 µM (inactive)	> 54.5 µM (inactive)	> 50.6 µM (inactive)	> 58.7 µM (inactive)	> 56.5 µM (inactive)	> 53.5 µM (inactive)		> 100 µM (inactive)	> 100 µM (inactive)	> 100 µM (inactive)
CC(CN(C)C)C(O)(c1ccccc1)c1ccccc1 (stereo not drawn)	> 100 µM (inactive)	> 100 µM (inactive)	> 100 µM (inactive)	> 100 µM (inactive)	> 100 µM (inactive)	> 100 µM (inactive)	> 100 µM (inactive)	> 100 µM (inactive)	> 100 µM (inactive)	> 100 µM (inactive)	> 100 µM (inactive)	> 100 µM (inactive)	> 100 µM (inactive)	> 100 µM (inactive)	> 100 µM (inactive)	> 100 µM (inactive)		> 100 µM (inactive)	27.2 µM (inactive)	> 100 µM (inactive)
COc1cc(C2c3cc4c(cc3C(O)C3CCC(=O)N23)OCO4)cc(OC)c1OC (stereo not drawn)	52.5 µM (inactive)	42.6 µM (inactive)	28.2 µM (inactive)	37 µM (inactive)	> 100 µM (inactive)	12.6 µM (inactive)	52.4 µM (inactive)	38.9 µM (inactive)	32.2 µM (inactive)	53 µM (inactive)	16.9 µM (inactive)	31.6 µM (inactive)	> 10 µM (inactive)	10.9 µM (inactive)	26.7 µM (inactive)	69.2 µM (inactive)		14.9 µM (inactive)	34.4 µM (inactive)	3.54 µM (inactive)
C[C@]12CCC3[C@@H](CC[C@@H]4c5nonc5CC[C@]34C)C1CCC(=O)N2 (stereo partly drawn)	> 100 µM (inactive)	> 100 µM (inactive)	> 100 µM (inactive)	> 100 µM (inactive)	68.9 µM (inactive)	> 100 µM (inactive)	> 100 µM (inactive)	> 100 µM (inactive)	> 100 µM (inactive)	> 100 µM (inactive)	56.1 µM (inactive)	> 100 µM (inactive)	> 100 µM (inactive)	> 100 µM (inactive)	55 µM (inactive)	> 100 µM (inactive)	> 100 µM (inactive)			
NC(=O)c1ccc(NCC2=CC(=O)C=CC2=O)cc1	19.6 µM (inactive)	33.9 µM (inactive)	19.1 µM (inactive)	19.1 µM (inactive)	16.9 µM (inactive)	> 100 µM (inactive)	17.5 µM (inactive)	16.9 µM (inactive)	18.8 µM (inactive)	25.9 µM (inactive)	16.3 µM (inactive)	16.3 µM (inactive)	17.1 µM (inactive)	15.5 µM (inactive)	21 µM (inactive)	17.7 µM (inactive)		15.5 µM (inactive)	35.8 µM (inactive)	17.2 µM (inactive)
COC(=O)NC(Cc1ccccc1)NC(=O)OC(C)(C)C (stereo not drawn)	> 100 µM (inactive)	> 100 µM (inactive)	> 100 µM (inactive)	> 100 µM (inactive)	> 100 µM (inactive)	> 100 µM (inactive)	> 100 µM (inactive)	> 100 µM (inactive)	> 100 µM (inactive)	> 100 µM (inactive)	96.4 µM (inactive)	> 100 µM (inactive)	> 100 µM (inactive)	> 100 µM (inactive)	> 100 µM (inactive)	> 100 µM (inactive)		> 100 µM (inactive)	> 100 µM (inactive)	> 100 µM (inactive)
O=C1N[C@@H](c2c[nH]c3ccc(Br)cc23)C(=O)N[C@H]1c1c[nH]c2ccc(Br)cc12	11.5 µM (inactive)	5.24 µM (inactive)	12.8 µM (inactive)	7.21 µM (inactive)	13 µM (inactive)	5.06 µM (inactive)	6.14 µM (inactive)	9.12 µM (inactive)	3.53 µM (inactive)	10.6 µM (inactive)	6.61 µM (inactive)	9.23 µM (inactive)	5.21 µM (inactive)	5.38 µM (inactive)	1.55 µM (inactive)	4.06 µM (inactive)		13.6 µM (inactive)	3.61 µM (inactive)	4.25 µM (inactive)
CCOC(=O)c1ccc(NC(NC(=O)CC)(C(F)(F)F)C(F)(F)F)cc1	> 100 µM (inactive)	> 100 µM (inactive)	> 100 µM (inactive)	> 100 µM (inactive)	> 100 µM (inactive)	59.6 µM (inactive)	96.2 µM (inactive)	> 100 µM (inactive)	55.5 µM (inactive)	> 100 µM (inactive)	> 100 µM (inactive)	> 100 µM (inactive)	> 100 µM (inactive)	> 100 µM (inactive)	> 100 µM (inactive)	> 100 µM (inactive)		> 100 µM (inactive)	> 100 µM (inactive)	> 100 µM (inactive)
NCc1c(C(N)=O)ncn1Cc1ccccc1	> 100 µM (inactive)	> 100 µM (inactive)	> 100 µM (inactive)	> 100 µM (inactive)	> 100 µM (inactive)		> 100 µM (inactive)	> 100 µM (inactive)	> 100 µM (inactive)	> 100 µM (inactive)		> 100 µM (inactive)	> 100 µM (inactive)	> 100 µM (inactive)	> 100 µM (inactive)	> 100 µM (inactive)	> 100 µM (inactive)		> 100 µM (inactive)	

From ChEMBL document CHEMBL1201862, “PubChem BioAssay data set” (2004)
